Structures can show the parent of a compound that is named as a salt.

The first assay deals with MCH receptor (Homo sapiens, UniProt Q99705). Kind of assay: FLIPR/FDSS6000 functional assay: intracellular Ca2+ changes evoked by MCH. The format is cell-based. Particulars: antagonist activity, 50 nM of MCH, [Ca2+]i by FLIPR or FDSS; read-out: IC50. A digest of the protocol: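 Cells expressing a constitutively active, non-endogenous MCH receptor were loaded with 4 μM Fluo-4-AM for 1 hr at 37 °C. They were then preincubated 30 min with compound before MCH addition, using 50 nM MCH for antagonist testing. [Ca2+]i transients were monitored at Ex 488/Em 530 nm for 290 s by FLIPR or FDSS.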
For the compound `Cc1nc(N[C@H]2CC[C@@H](NC(=O)c3ccc(F)cc3)CC2)cc(N(C)C)n1` [Example 7, N-(cis-4-{[6-(Dimethylamino)-2-methylpyrimidin-4-yl]amino}cyclohexyl)-4-fluorobenzamide hydrochloride], the IC50 stood at 0.101 µM.

Staying with this assay, now noted: class by percent of control at 10^−7 M or by IC50; antagonist activity, 50 nM of MCH; read-out: class.
In the case of `Cc1nc(N[C@H]2CC[C@@H](NC(=O)c3cc(F)cc(Cl)c3)CC2)cc(N(C)C)n1` [Example 10, 3-Chloro-N-(cis-4-{[6-(dimethylamino)-2-methylpyrimidin-4-yl]amino}cyclohexyl)-5-fluorobenzamide hydrochloride], the IC50 is below 0.05 µM.

Turning to `Cc1nc(N[C@H]2CC[C@@H](NC(=O)c3ccc(F)c(Cl)c3)CC2)cc(N(C)C)n1` [Example 6, 3-Chloro-N-(cis-4-{[6-(dimethylamino)-2-methylpyrimidin-4-yl]amino}cyclohexyl)-4-fluorobenzamide hydrochloride], the IC50 was below 0.05 µM.

On to `COc1cc(N[C@H]2CC[C@@H](NC(=O)c3ccc(F)c(Cl)c3)CC2)nc(OC)n1` [Example 185, 3-Chloro-N-{cis-4-[(2,6-dimethoxypyrimidin-4-yl)amino]cyclohexyl}-4-fluorobenzamide hydrochloride], for which the IC50 was above 0.2 µM.

With `Cc1nc(N[C@H]2CC[C@@H](C(=O)Nc3cc(F)c(F)c(F)c3)CC2)cc(N(C)C)n1` [Example 193, cis-4-{[6-(Dimethylamino)-2-methylpyrimidin-4-yl]amino}-N-(3,4,5-trifluorophenyl)-cyclohexanecarboxamide hydrochloride], the IC50 is below 0.05 µM.

As for `CCNc1nccc(N[C@H]2CC[C@@H](NC(=O)c3ccc(F)c(F)c3)CC2)n1` [Example 34, N-(cis-4-{[2-(Ethylamino)pyrimidin-4-yl]amino}cyclohexyl)-3,4-difluorobenzamide hydrochloride], the IC50 was above 0.2 µM.

As for `Cc1nc(N[C@H]2CC[C@@H](NC(=O)c3ccc(Cl)c(Cl)c3)CC2)cc(N(C)C)n1` [Example 8, 3,4-Dichloro-N-(cis-4-{[6-(dimethylamino)-2-methylpyrimidin-4-yl]amino}cyclohexyl)-benzamide hydrochloride], the IC50 was below 0.05 µM.

For the compound `Cn1ccc2c(N[C@H]3CC[C@@H](NC(=O)c4ccc(F)c(Cl)c4)CC3)ncnc21` [Example 187, 3-Chloro-4-fluoro-N-{cis-4-[(7-methyl-7H-pyrrolo[2,3-d]pyrimidin-4-yl)amino]cyclohexyl}-benzamide hydrochloride], the IC50 fell in the range of 0.05 to 0.2 µM.

Turning to `Cc1nc(N[C@H]2CC[C@@H](NS(=O)(=O)c3ccc(F)c(Cl)c3)CC2)cc(N(C)C)n1` [Example 182, 3-Chloro-N-(cis-4-{[6-(dimethylamino)-2-methylpyrimidin-4-yl]amino}cyclohexyl)-4-fluorobenzenesulfonamide hydrochloride], the IC50 is above 0.2 µM.

Consider `Cc1nc(N[C@H]2CC[C@@H](NC(=S)Nc3ccc(F)c(Cl)c3)CC2)cc(N(C)C)n1` [Example 183, N-(3-Chloro-4-fluorophenyl)-N′-(cis-4-{[6-(dimethylamino)-2-methylpyrimidin-4-yl]amino}cyclohexyl)thiourea hydrochloride], for which the IC50 was above 0.2 µM.

Turning to `CCn1ccc2c(N[C@H]3CC[C@@H](NC(=O)c4ccc(F)c(Cl)c4)CC3)ncnc21` [Example 189, 3-Chloro-N-{cis-4-[(7-ethyl-7H-pyrrolo[2,3-d]pyrimidin-4-yl)amino]cyclohexyl}-4-fluorobenzamide hydrochloride], the IC50 is above 0.2 µM.

For `Cc1nc(N[C@H]2CC[C@@H](NC(=O)c3ccc(F)c(Cl)c3)CC2)cc(-n2ccnc2)n1` [Example 38, 3-Chloro-4-fluoro-N-(cis-4-{[6-(1H-imidazol-1-yl)-2-methylpyrimidin-4-yl]amino}cyclohexyl)-benzamide dihydrochloride], the IC50 is above 0.2 µM.

On to `CN(C)c1cc(N[C@H]2CC[C@@H](NC(=O)c3ccc(F)c(F)c3)CC2)nc(N(C)C)n1` [Example 33, N-(cis-4-{[2,6-bis(Dimethylamino)pyrimidin-4-yl]amino}cyclohexyl)-3,4-difluorobenzamide hydrochloride], for which the IC50 lay in the range of 0.05 to 0.2 µM.

On to `CN(C)c1cc(N[C@H]2CC[C@@H](NC(=O)c3ccc(F)c(F)c3)CC2)ncn1` [Example 2, N-(cis-4-{[6-(1-Dimethylamino)pyrimidin-4-yl]amino}cyclohexyl)-3,4-difluorobenzamide hydrochloride], for which the IC50 was in the range of 0.05 to 0.2 µM.

For the compound `Cc1nc(NC2CC2)cc(N[C@H]2CC[C@@H](NC(=O)c3cc(F)c(F)c(F)c3)CC2)n1` [Example 173, N-(cis-4-{[6-(Cyclopropylamino)-2-methylpyrimidin-4-yl]amino}cyclohexyl)-3,4,5-trifluorobenzamide hydrochloride], the IC50 is above 0.2 µM.

As to `Cc1nc(N[C@H]2CC[C@@H](NC(=O)c3cc(C(F)(F)F)cc(C(F)(F)F)c3)CC2)cc(N(C)C)n1` [Example 27, N-(cis-4-{([6-(Dimethylamino)-2-methylpyrimidin-4-yl]amino}cyclohexyl)-3,5-bis-(trifluoromethyl)benzamide hydrochloride], the IC50 was in the range of 0.05 to 0.2 µM.

With `Cc1nc(N[C@H]2CC[C@@H](NC(=O)c3ccc(F)cc3)CC2)cc(N(C)C)n1` [Example 7, N-(cis-4-{[6-(Dimethylamino)-2-methylpyrimidin-4-yl]amino}cyclohexyl)-4-fluorobenzamide hydrochloride], the IC50 was in the range of 0.05 to 0.2 µM.

On to `Cc1nc(N[C@H]2CC[C@@H](C(=O)Nc3ccc(F)c(F)c3)CC2)cc(N(C)C)n1` [Example 192, cis-N-(3,4-Difluorophenyl)-4-{[6-(dimethylamino)-2-methylpyrimidin-4-yl]amino}cyclohexanecarboxamide hydrochloride], for which the IC50 was 0.05 to 0.2 µM.

As for `CN(C)c1cc(N[C@H]2CC[C@@H](CNC(=O)c3ccc(F)c(F)c3)CC2)ncn1` [Example 4, N-[(cis-4-{[6-(Dimethylamino)pyrimidin-4-yl]amino}cyclohexyl)methyl]-3,4-difluorobenzamide hydrochloride], the IC50 was above 0.2 µM.

Turning to `Cc1nc(N[C@H]2CC[C@@H](NC(=O)c3ccc(F)c(C(F)(F)F)c3)CC2)cc(N(C)C)n1` [Example 14, N-(cis-4-{[6-(Dimethylamino)-2-methylpyrimidin-4-yl]amino}cyclohexyl)-4-fluoro-3-(trifluoromethyl)benzamide hydrochloride], the IC50 is below 0.05 µM.

As to `Cc1nc(N[C@H]2CC[C@@H](NC(=O)c3cccc(C(F)(F)F)c3)CC2)cc(N(C)C)n1` [Example 17, N-(cis-4-{[6-(Dimethylamino)-2-methylpyrimidin-4-yl]amino}cyclohexyl)-3-(trifluoromethyl)-benzamide hydrochloride], the IC50 is below 0.05 µM.

Regarding `Cc1nc(N[C@H]2CC[C@@H](NC(=O)c3ccccc3F)CC2)cc(N(C)C)n1` [Example 22, N-(cis-4-{[6-(Dimethylamino)-2-methylpyrimidin-4-yl]amino}cyclohexyl)-2-fluorobenzamide hydrochloride], the IC50 is above 0.2 µM.

With `CN(C)c1cc(N[C@H]2CC[C@@H](NC(=O)c3ccc(F)c(Cl)c3)CC2)nc(Cc2ccccc2)n1` [Example 179, N-(cis-4-{[2-Benzyl-6-(dimethylamino)pyrimidin-4-yl]amino}cyclohexyl)-3-chloro-4-fluorobenzamide hydrochloride], the IC50 is below 0.05 µM.

On to `Cc1nc(N[C@H]2CC[C@@H](CNC(=O)c3ccc(F)c(F)c3)CC2)cc(N(C)C)n1` [Example 29, N-[(cis-4-{[6-(Dimethylamino)-2-methylpyrimidin-4-yl]amino}cyclohexyl)methyl]-3,4-difluorobenzamide hydrochloride], for which the IC50 is above 0.2 µM.

The values are drawn from patent US20090036448A1, “PYRIMIDINE DERIVATIVES AND METHODS OF TREATMENT RELATED TO THE USE THEREOF” (TAISHO PHARMECUTICAL CO., LTD., priority 2004, published 2009).
